In PubChem BioAssay AID256 (DTP/NCI, 2004):
“And” between values parts separate entries of the source, which are not always exact repeats. Equal values may be shown once. Inconclusive results and toxic doses are left out. The calls were made as follows: active = survival T/C of 150% or more; inactive = T/C below 125% in these data.

System: CD2F1 mice, L1210 leukemia ip, survival T/C
Assay: NCI In Vivo Anticancer Drug Screen. Data for tumor model L1210 Leukemia (intraperitoneal) in CD2F1 (CDF1) mice
Settings: higher = longer survival
In short: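 Vehicle-treated tumor-bearing mice served as controls (C) for compound-treated mice (T). Reported figure is T divided by C.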

[1] = endpoint: mean survival time, dose: 100.0 mg/kg/injection, schedule: Q04DX003 (ip), vehicle: saline with Tween-80
[2] = endpoint: mean survival time, dose: 200.0 mg/kg/injection, schedule: Q04DX003 (ip), vehicle: saline with Tween-80
[3] = endpoint: mean survival time, dose: 400.0 mg/kg/injection, schedule: Q04DX003 (ip), vehicle: saline with Tween-80
[4] = endpoint: mean survival time, dose: 100.0 mg/kg/injection, schedule: Q01DX009 (ip), vehicle: saline with Tween-80
[5] = endpoint: mean survival time, dose: 200.0 mg/kg/injection, schedule: Q01DX009 (ip), vehicle: saline with Tween-80
[6] = endpoint: mean survival time, dose: 100.0 mg/kg/injection, schedule: Q01DX001 (ip), vehicle: saline with Tween-80
[7] = endpoint: mean survival time, dose: 200.0 mg/kg/injection, schedule: Q01DX001 (ip), vehicle: saline with Tween-80
[8] = endpoint: mean survival time, dose: 75.0 mg/kg/injection, schedule: Q01DX001 (ip), vehicle: saline
[9] = endpoint: mean survival time, dose: 50.0 mg/kg/injection, schedule: Q01DX009 (ip), vehicle: saline
[10] = endpoint: mean survival time, dose: 100.0 mg/kg/injection, schedule: Q01DX009 (ip), vehicle: saline
[11] = endpoint: mean survival time, dose: 50.0 mg/kg/injection, schedule: Q01DX009 (ip), vehicle: saline with Tween-80
[12] = endpoint: mean survival time, dose: 100.0 mg/kg/injection, schedule: Q04DX002 (ip), vehicle: saline with Tween-80

Measured: T/C

NC(=O)c1[nH]nc(C2OC(CO)C(O)C2O)c1O (configuration not stated)
inactive: endpoint: mean survival time, dose: 0.25 mg/kg/injection, schedule: Q04DX003 (ip), vehicle: saline 105 % of control | endpoint: mean survival time, dose: 0.5 mg/kg/injection, schedule: Q04DX003 (ip), vehicle: saline 97 % of control | endpoint: mean survival time, dose: 1.0 mg/kg/injection, schedule: Q04DX003 (ip), vehicle: saline 96 % of control | endpoint: mean survival time, dose: 2.0 mg/kg/injection, schedule: Q04DX003 (ip), vehicle: saline 97 % of control | endpoint: median survival time, dose: 0.25 mg/kg/injection, schedule: Q01DX009 (ip), vehicle: saline 98 % of control | endpoint: median survival time, dose: 0.5 mg/kg/injection, schedule: Q01DX009 (ip), vehicle: saline 111 % of control | endpoint: median survival time, dose: 1.0 mg/kg/injection, schedule: Q01DX009 (ip), vehicle: saline 121 % of control | endpoint: median survival time, dose: 1.0 mg/kg/injection, schedule: Q04DX003 (ip), vehicle: saline 102 % of control | endpoint: median survival time, dose: 1.88 mg/kg/injection, schedule: Q04DX003 (ip), vehicle: saline 117 % of control | endpoint: median survival time, dose: 2.0 mg/kg/injection, schedule: Q01DX009 (ip), vehicle: saline 120 % of control | endpoint: median survival time, dose: 3.75 mg/kg/injection, schedule: Q04DX003 (ip), vehicle: saline 110 % of control | endpoint: median survival time, dose: 4.0 mg/kg/injection, schedule: Q01DX009 (ip), vehicle: saline 110 % of control | endpoint: median survival time, dose: 7.5 mg/kg/injection, schedule: Q04DX003 (ip), vehicle: saline 116 % of control | endpoint: median survival time, dose: 8.0 mg/kg/injection, schedule: Q01DX009 (ip), vehicle: saline 88 % of control | endpoint: median survival time, dose: 8.0 mg/kg/injection, schedule: Q04DX003 (ip), vehicle: saline 117 % of control and 120 % of control | endpoint: median survival time, dose: 15.0 mg/kg/injection, schedule: Q04DX003 (ip), vehicle: saline 118 % of control | endpoint: median survival time, dose: 16.0 mg/kg/injection, schedule: Q01DX009 (ip), vehicle: saline 101 % of control | endpoint: median survival time, dose: 16.0 mg/kg/injection, schedule: Q04DX003 (ip), vehicle: saline 111 % of control | endpoint: median survival time, dose: 30.0 mg/kg/injection, schedule: Q04DX003 (ip), vehicle: saline 97 % of control | endpoint: median survival time, dose: 32.0 mg/kg/injection, schedule: Q04DX003 (ip), vehicle: saline 118 % of control

CCCCCCCCCCCCCCCOc1ccc2ccccc2c1
inactive: endpoint: mean survival time, dose: 100.0 mg/kg/injection, schedule: Q01DX001 (ip), vehicle: Klucel (hydroxypropylcellulose) (HPC) 102 % of control | endpoint: mean survival time, dose: 200.0 mg/kg/injection, schedule: Q01DX001 (ip), vehicle: Klucel (hydroxypropylcellulose) (HPC) 94 % of control | endpoint: mean survival time, dose: 400.0 mg/kg/injection, schedule: Q01DX001 (ip), vehicle: Klucel (hydroxypropylcellulose) (HPC) 90 % of control

C[n+]1ccn(Cc2ccc([N+](=O)[O-])cc2)c1
inactive: endpoint: mean survival time, dose: 100.0 mg/kg/injection, schedule: Q01DX001 (ip), vehicle: saline 100 % of control | endpoint: mean survival time, dose: 200.0 mg/kg/injection, schedule: Q01DX001 (ip), vehicle: saline 101 % of control

CSC(=S)N(C)/N=C/c1cccc(C)n1
inactive: [1] 96 % of control | [2] 102 % of control | [3] 102 % of control

CCOC(=O)CN(C=O)C1c2ccccc2-c2ccccc21
inactive: [1] 99 % of control | [2] 92 % of control | [3] 97 % of control

COc1cccc2c1C(=O)c1c(O)c3c(c(O)c1C2=O)C[C@@](O)(/C(C)=N/NC(=O)c1cccc([N+](=O)[O-])c1)C[C@@H]3OC1CC(N)C(O)C(C)O1 (some centres not stated)
inactive: endpoint: mean survival time, dose: 2.0 mg/kg/injection, schedule: Q01DX009 (ip), vehicle: water 121 % of control | endpoint: mean survival time, dose: 4.0 mg/kg/injection, schedule: Q01DX009 (ip), vehicle: water 121 % of control | endpoint: mean survival time, dose: 16.0 mg/kg/injection, schedule: Q01DX009 (ip), vehicle: water 98 % of control

COC(=O)CCC(=O)c1ccc(C)cc1
inactive: endpoint: mean survival time, dose: 100.0 mg/kg/injection, schedule: Q04DX003 (ip), vehicle: acetone 94 % of control | endpoint: mean survival time, dose: 200.0 mg/kg/injection, schedule: Q04DX003 (ip), vehicle: acetone 104 % of control | endpoint: mean survival time, dose: 400.0 mg/kg/injection, schedule: Q04DX003 (ip), vehicle: acetone 98 % of control

CC1(C(N)=O)OC12CCCCC2 (configuration not stated)
inactive: [1] 95 % of control | [2] 97 % of control | [3] 97 % of control

O=C(NC(O)C(Cl)(Cl)Cl)C(Cl)(Cl)Cl (configuration not stated)
inactive: [4] 89 % of control | [1] 104 % of control | [5] 100 % of control | [2] 105 % of control | endpoint: mean survival time, dose: 400.0 mg/kg/injection, schedule: Q01DX009 (ip), vehicle: saline with Tween-80 107 % of control | [3] 104 % of control

CCSC(SCC)C(O)C(O)C1COC(C)(C)O1 (configuration not stated)
inactive: [6] 93 % of control | [7] 93 % of control | endpoint: mean survival time, dose: 400.0 mg/kg/injection, schedule: Q01DX001 (ip), vehicle: saline with Tween-80 101 % of control

CCCCCCCCCCCCC1C(=O)NC(=O)NC1=O
inactive: [8] 100 % of control | endpoint: mean survival time, dose: 150.0 mg/kg/injection, schedule: Q01DX001 (ip), vehicle: saline 99 % of control | endpoint: mean survival time, dose: 300.0 mg/kg/injection, schedule: Q01DX001 (ip), vehicle: saline 97 % of control

O=CC(=O)c1ccc(O)cc1
inactive: endpoint: mean survival time, dose: 6.25 mg/kg/injection, schedule: Q01DX009 (ip), vehicle: saline 101 % of control | endpoint: mean survival time, dose: 12.5 mg/kg/injection, schedule: Q01DX009 (ip), vehicle: saline 97 % of control | endpoint: mean survival time, dose: 25.0 mg/kg/injection, schedule: Q01DX009 (ip), vehicle: saline 100 % of control | [9] 103 % of control | [10] 108 % of control

CC(=O)C1C(=O)C(=O)OC1C (configuration not stated)
inactive: [9] 102 % of control | [10] 98 % of control | endpoint: mean survival time, dose: 200.0 mg/kg/injection, schedule: Q01DX009 (ip), vehicle: saline 101 % of control

O=C1c2ccccc2C(=O)N1CCS(=O)(=O)Cl
inactive: endpoint: mean survival time, dose: 50.0 mg/kg/injection, schedule: Q01DX001 (ip), vehicle: saline with Tween-80 100 % of control | [11] 95 % of control and 101 % of control | endpoint: mean survival time, dose: 50.0 mg/kg/injection, schedule: Q04DX002 (ip), vehicle: saline with Tween-80 97 % of control and 108 % of control | endpoint: mean survival time, dose: 50.0 mg/kg/injection, schedule: Q04DX003 (ip), vehicle: saline with Tween-80 98 % of control | [6] 97 % of control | [4] 96 % of control and 101 % of control | [12] 96 % of control and 100 % of control | [1] 98 % of control | [7] 98 % of control | [5] 93 % of control | endpoint: mean survival time, dose: 200.0 mg/kg/injection, schedule: Q04DX002 (ip), vehicle: saline with Tween-80 100 % of control and 101 % of control | [2] 101 % of control

OC(CCc1ccccc1)(C(F)(F)F)C(F)(F)F
inactive: endpoint: mean survival time, dose: 100.0 mg/kg/injection, schedule: Q04DX003 (ip), vehicle: Klucel (hydroxypropylcellulose) (HPC) 92 % of control | endpoint: mean survival time, dose: 200.0 mg/kg/injection, schedule: Q04DX003 (ip), vehicle: Klucel (hydroxypropylcellulose) (HPC) 95 % of control | endpoint: mean survival time, dose: 400.0 mg/kg/injection, schedule: Q04DX003 (ip), vehicle: Klucel (hydroxypropylcellulose) (HPC) 97 % of control

C=CCON
inactive: [8] 100 % of control

CCCCCCCCCCCCCCCC[N+](C)(C)C
inactive: endpoint: mean survival time, dose: 1.25 mg/kg/injection, schedule: Q01DX009 (ip), vehicle: saline with Tween-80 96 % of control | endpoint: mean survival time, dose: 2.5 mg/kg/injection, schedule: Q01DX009 (ip), vehicle: saline with Tween-80 98 % of control | endpoint: mean survival time, dose: 5.0 mg/kg/injection, schedule: Q01DX009 (ip), vehicle: saline with Tween-80 94 % of control and 97 % of control | endpoint: mean survival time, dose: 5.0 mg/kg/injection, schedule: Q04DX003 (ip), vehicle: saline 96 % of control | endpoint: mean survival time, dose: 10.0 mg/kg/injection, schedule: Q04DX003 (ip), vehicle: saline 98 % of control | endpoint: mean survival time, dose: 20.0 mg/kg/injection, schedule: Q04DX003 (ip), vehicle: saline 95 % of control

Cc1cc(S(=O)(=O)F)cc(Cl)c1S
inactive: [12] 102 % of control

CCCC(=O)OCc1ccc(Cl)c(Cl)c1
inactive: [11] 97 % of control | [4] 92 % of control | [1] 91 % of control | [2] 87 % of control

N#CC(=C=[N-])[n+]1ccccc1
inactive: endpoint: mean survival time, dose: 12.5 mg/kg/injection, schedule: Q04DX003 (ip), vehicle: Klucel (hydroxypropylcellulose) (HPC) 98 % of control | endpoint: mean survival time, dose: 25.0 mg/kg/injection, schedule: Q04DX003 (ip), vehicle: Klucel (hydroxypropylcellulose) (HPC) 100 % of control

O=C(O)C1=CC(O)C(O)C(O)C1 (configuration not stated)
inactive: endpoint: mean survival time, dose: 100.0 mg/kg/injection, schedule: Q04DX003 (ip), vehicle: saline 102 % of control | endpoint: mean survival time, dose: 200.0 mg/kg/injection, schedule: Q04DX003 (ip), vehicle: saline 96 % of control | endpoint: mean survival time, dose: 400.0 mg/kg/injection, schedule: Q04DX003 (ip), vehicle: saline 90 % of control
